Tests used:
[1] = system: tomato (Momotaro Fight); assay: Sprinkling of various compounds on tomato (Momotaro): first appearance, coloring and number of fruit; assay type: in vivo; settings: per four root clumps; for number of fruit turning color to orange or red: 107th day after sowing, water: 0; for number of harvested fruits: after cultivation for 3 months after sowing, water: 8
Experimental: Three seeds of tomato (Momotaro Fight) were shown in compost contained in a slit pot, and cultivated in the same manner as described in Example 1, provided that the cultivation was performed in a greenhouse (daytime temperature was 25° C. (6:00 to 20:00), and night temperature was 15° C. (20:00 to 6:00)). The compost and application of fertilizer were the same or performed in the same manner as those described in Example 1. After 3 weeks, one root clump was left, and the others were thinned out. When a flower cluster of the first tier appeared, a support was put up, and after a flower cluster of the second tier appeared, pinching was performed (pinching of terminal bud). After the plants of four root clumps uniformly grew, and flower buds began to appear, water (Con.), 10 mM L-isoleucine aqueous solution (Ile), 10 mM monosodium glutamate aqueous solution (GluNa), 5 mM urea aqueous solution (Urea), or 10 mM phenylalanine aqueous solution (Phe) was sprinkled on the whole plants every two weeks. The sprinkled volume was adjusted in accordance with the growth of the plants, and it was 15 to 30 mL per one root clump. The concentration of urea was 5 mM so that nitrogen amount provided by it was the same as that provided by each of the amino acids. Then, the first appearance of fruit, ripening of fruit, and number of fruit produced were investigated for each root clump.

[2] = system: cherry tomato (Suncherry Pure); assay: Sugar content and acidity analysis of tomato fruit juice; assay type: in vivo; settings: 10 mM sprinkled once a week
Experimental: (§1) After the plants of four root clumps uniformly grew, and flower buds began to appear, water (Con.), 10 mM L-isoleucine aqueous solution (Ile), or 10 mM proline aqueous solution (Pro) was sprinkled on the whole plants once a week. The sprinkled volume was adjusted in accordance with the growth of the plants, and it was 15 to 30 mL per one root clump.
Mature tomato fruit were taken from cherry tomato plants of each experimental group in the same manner as described in iii) above, and fruit juice was pressed out from each fruit. Glucose content, fructose content, and acidity of each fruit juice extract were analyzed. Analysis of glucose and fructose was performed for a 20-fold diluted solution of fruit juice by using a food analysis reagent kit, F-Kit (Saccharose (Sucrose)/D-Glucose/D-Fructose Kit (Roche)) and DU800 Spectrophotometer (Beckman Coulter) according to the manuals of the kit and instrument. Acidity analysis was performed by using a pocket acidity meter (PAL-AC1, ATAGO).

[3] = system: VR callus derived from European grape; assay: Anthocyanin content of grape calluses treated with amino acids; assay type: cell-based, Vitis vinifera L.
Experimental: A cell line (VR, management number RPC00003) derived from European grape (Vitis vinifera L.) and stored in the Institute of Physical and Chemical Research, BioResource Center was subcultured on the MS agar medium. The subcultured VR callus was transferred to the MS agar medium containing a 5 mM solution of a different amino acid, and cultured. For the positive control, abscisic acid (ABA), for which coloring-promoting effect is known, was used at 100 μM (Jeong et al., Plant Science, 167:247-252, 2004). On the 5th day after the transfer, the callus was lyophilized and ground, and anthocyanin was extracted from it by using a 1% HCl/MeOH solution. Absorbance of the extract was measured at 530 nm, and the content of anthocyanin was measured by using cyanidine 3-glucoside as a standard substance.
(2) In the same manner as described above, anthocyanin content of grape calluses treated with isoleucine and proline, respectively, were measured.

[4] = system: cherry tomato (Suncherry Pure); assay: Amino acid analysis of tomato fruit obtained with sprinkling of Ile or Pro; assay type: in vivo; settings: fruit juice; plants sprinkled with 10 mM solution once a week; average of 8 fruit
Experimental: as §1
Mature fruit were taken from each of the cherry tomato plants sprinkled with water, Ile, or Pro, and the amino acid content was analyzed for each. Two pieces of fruit were taken from the flower cluster of the second tier of one root clump, that is, a total of 8 pieces of fruit were taken for each test group. Fruit juice was pressed out of each piece of fruit, and the fruit juice was diluted 10 times with 0.02 N HCl, and subjected to filter filtration. The amino acids contained in the obtained filtrate were measured. Measurement of the amino acids was performed with High Speed Amino Acid Analyzer L-8800 (Hitachi) according to the manual of this instrument. The amounts of the amino acids (μmol/mL) in each fruit juice filtrate were calculated, and the averages for eight pieces of fruit were used as the amino acid amounts of the corresponding test group.

[5] = system: cherry tomato (Suncherry Pure); assay type: in vivo; settings: 10 mM sprinkled once a week
Experimental: Three seeds of cherry tomato (Suncherry Pure, Tokita Seed) were shown in compost contained in a slit pot, and cultivated in the same manner as described in Example 1, provided that the cultivation was performed in a greenhouse as in Example 2. The compost and application of fertilizer were the same or performed in the same manner as those described in Example 1. One month after the sowing, each seedling was permanently planted in a 9.0-cm long pot (top diameter 9 cm, height 20 cm, bottom diameter 6.4 cm), and cultivated until harvest. As for application of fertilizer, a 200-fold diluted solution of Vegetable Life A (Otsuka Chemical) was additionally applied as a fertilizer by irrigation in a volume of 100 mL per one root clump (pot) every two days from one month after the sowing to the harvest. After the plants of four root clumps uniformly grew, and flower buds began to appear, water (Con.), 10 mM L-isoleucine aqueous solution (Ile), or 10 mM proline aqueous solution (Pro) was sprinkled on the whole plants once a week. The sprinkled volume was adjusted in accordance with the growth of the plants, and it was 15 to 30 mL per one root clump. Then, ripening of fruit, number of fruit, amino acid content of fruit juice, sugar content and acidity of fruit juice, and antioxidant capacity of fruit juice were investigated for each root clump.

For `N[C@@H](CCC(=O)O)C(=O)[O-].[Na+]` [GluNa, monosodium glutamate], the “number of fruit turning color to orange or red” value (shortened to “number of fruit turning color”) [1] was 1 and the “number of harvested fruits” value [1] was 14.

With `N[C@@H](Cc1ccccc1)C(=O)O` [Phe, phenylalanine] the “number of fruit turning color” value [1] was 0 and the “number of harvested fruits” value [1] was 8.

In the case of `O=C(O)[C@@H]1CCCN1` [Pro, proline, reference compound], the “acidity of the fruit, comparison of groups” value [2] is reported as “slightly increased”, the “glucose content and fructose content of the fruit, comparison of groups” value [2] is reported as “lowest” and the Acidity ([2]; fruit juice of mature fruit) is reported as 0.47%. For the same compound, the Fructose ([2]; fruit juice of mature fruit) was 12.2 g/L, the Glucose ([2]; fruit juice of mature fruit) was 12.3 g/L and the “change in color of the grape callus (anthocyanin content)” value ([3]; Ile of 1 mM or higher, Pro compared with Ile) was “weaker”. The “Ala in fruit juice” value [4] was 3.79 µmol/mL, the “Arg in fruit juice” value [4] was 0.13 µmol/mL and the “Asn in fruit juice” value [4] was 0.63 µmol/mL. The “Asp in fruit juice” value [4] was 1.75 µmol/mL, the “Cys in fruit juice” value [4] was 0.08 µmol/mL and the “Gln in fruit juice” value [4] was 1.57 µmol/mL. The “Glu in fruit juice” value [4] was 7.76 µmol/mL, the “Gly in fruit juice” value [4] was 0.24 µmol/mL and the “His in fruit juice” value [4] was 0.17 µmol/mL. The “Ile in fruit juice” value [4] was 0.15 µmol/mL, the “Leu in fruit juice” value [4] was 0.29 µmol/mL and the “Lys in fruit juice” value [4] was 0.27 µmol/mL. For the same compound, the “Met in fruit juice” value [4] was 0.14 µmol/mL, the “Phe in fruit juice” value [4] was 0.38 µmol/mL and the “Pro in fruit juice” value [4] was 0.39 µmol/mL. The “Ser in fruit juice” value [4] was 0.61 µmol/mL, the “Thr in fruit juice” value [4] was 0.27 µmol/mL and the “Total amino acids in fruit juice” value [4] was 21.13 µmol/mL. For the same compound, the “Trp in fruit juice” value [4] was 0.072 µmol/mL, the “Tyr in fruit juice” value [4] was 0.185 µmol/mL and the “Val in fruit juice” value [4] was 0.18 µmol/mL. The “γ-ABA in fruit juice” value [4] was 4.46 µmol/mL, the “final crop yield: number of fruit produced, larger as compared to water (Con.)” value [5] was 9% and the “number of tomatoes that had changed color” value [5] was “larger in the order of the tomato plants sprinkled with Ile, Pro, and water (Con.)”.

Work on `N[C@@H](Cc1ccc(O)cc1)C(=O)O` [Try, reference compound] yielded a Relative anthocyanin content ([3]; 5 mM amino acid in MS agar medium, 5th day after transfer, positive control 100 μM abscisic acid (ABA) taken as 100%) of 0%.

With `NC(N)=O` [Urea, urea] the “number of fruit turning color” value [1] was 1 and the “number of harvested fruits” value [1] was 10.

From US10226044B2, “Agricultural and horticultural composition and method for cultivating plant” (AJINOMOTO CO., INC., priority 2014, dated 2019)
